Laboratory results as given in patent US8759519B2, “Mono-hydrochloric salts of an inhibitor of histone deacetylase” (Janssen Pharmaceutica NV, priority 2007, dated 2014).
Structures can show the parent of a compound that is named as a salt. Where two headings read alike, the source gives them in different places.

Experiments:
Format in all cases: physicochemical
[1] = Adsorption/desorption of water (dynamic vapor sorption); settings: 25° C., hydrochloride
Protocol: The ADS/DES data were obtained using a SMS dynamic vapor sorption model DVS-1 and the weight change was recorded with tespect to the atmospheric humidity at 25° C. The weight of the samples was about 17 mg of Form I and 24 mg of Form II. The samples were dried for 60 min under dry nitrogen. The equilibrium was lower or equal to 0.01%/min. for minimal 15 min and maximal 60 min. The data interval was 0.05% or 2.0 min.
Relative Humidity (%) measurement points were:
The adsorption and desorption of water at 25° C. at different conditions of relative humidity was investigated on 17 mg Form I.
The weight change as a function of relative humidity was registered.
The adsorption and desorption of water at 25° C. at different conditions of relative humidity was investigated on about 24 mg Form II

[2] = Aqueous solubility in solvents with different pH; settings: 20° C., read-out: Solubility (mg/ml solution)
Protocol: Aqueous solubilities of Form I were measured in solvents with different pH. An excess of the solute was equilibrated with the solvent at 20° C. for 24 hours. After removing the undissolved compound, the concentration in solution was determined using UV spectrometry.

[3] = Crystallographic stability after storage in open conditions (TGA, DSC, XRPD, IR); design: key to XRD / IR: ~Ref: identical with reference; Cryst.: crystalline; settings: for IR / XRD: Table E
Protocol: The stability of the crystal structure of Form I was studied after storage of the compound in open conditions for a period of six weeks at room temperature (RT) under <5%, 56% and 75% relative humidity (RH), 50° C. and 40° C./75% RH.
The samples are analyzed with thermogravimetry (TGA), differential scanning calorimetry (DSC), X-ray powder diffraction (XRPD) and infrared spectroscopy (IR).
The stability of the crystal structure of Form II was studied after storage of the compound in open conditions for a period of six weeks at room temperature (RT) under <5%, 56% and 75% relative humidity (RH), 50° C. and 40° C./75% RH.
The samples were analyzed with thermogravimetry (TGA), differential scanning calorimetry (DSC), X-ray powder diffraction (XRPD) and infrared spectroscopy (IR).

[4] = Chemical stability after storage in open conditions (HPLC, visual inspection); settings: for Appearance / HPLC Sum of impurities: hydrochloride
Protocol: Form I was stored in different open conditions for periods of 1, 4 and 8 weeks.
These conditions are 40° C./75% RH, 50° C., RT/<5% RH, RT/56% RH, RT/75% RH and 0.3 da ICH light.
The compounds were analyzed after storage by HPLC and by visual inspection.
Form II was stored in different open conditions for periods of 1, 4 and 8 weeks. These conditions were 40° C./75% RH, 50° C., RT/<5% RH, RT/56% RH, RT/75% RH and 0.3 da ICH light.

[5] = 0 days (reference), hydrochloride
[6] = six weeks open, 40° C./75% RH, hydrochloride
[7] = six weeks open, 50° C., hydrochloride
[8] = six weeks open, RT/56% RH, hydrochloride
[9] = six weeks open, RT/75% RH, hydrochloride
[10] = six weeks open, RT/<5% RH, hydrochloride

hygroscopic behavior ([1]; adsorption/desorption test): no hygroscopic behavior
water adsorbed at high relative humidity ([1]; high relative humidity): up to 0.6%
crystallinity during the adsorption/desorption test [1]: remained crystalline
solubility thermodynamic at 24 h ([2]; aqueous buffer, 0.001N HCl (pH 2.9)): 1.5 mg/mL
solubility thermodynamic at 24 h ([2]; aqueous buffer, 0.01N HCl (pH 2.0)): 1.4 mg/mL
solubility thermodynamic at 24 h ([2]; aqueous buffer, Buffer pH 2 (citric acid/NaOH/HCl) (pH 2.0)): 0.95 mg/mL
solubility thermodynamic at 24 h ([2]; aqueous buffer, Buffer pH 4 (citric acid/HCl/NaOH) (pH 3.9)): 1.2 mg/mL
solubility thermodynamic at 24 h ([2]; aqueous buffer, Buffer pH 6 (citric acid/NaOH) (pH 6.0)): 1.5 mg/mL
solubility thermodynamic at 24 h ([2]; aqueous buffer, Buffer pH 8 (boric acid/HCl/NaOH) (pH 7.8)): 1.3 mg/mL
solubility thermodynamic at 24 h ([2]; aqueous buffer, Buffer pH 10 (boric acid/KCl/NaOH) (pH 9.8)): 1.3 mg/mL
solubility thermodynamic at 24 h ([2]; water (pH 4.5)): 1.4 mg/mL
DSC Exotherm Max (° C.) ([3]; 0 days (reference)): 216.8 °C
TGA <200° C. ([3]; 0 days (reference)): 0.9%
App (appearance) [3, 5]: Beige-gray
TGA <100° C. [3, 5]: 0.4%
IR ([3]; six weeks open, 40° C./75% RH): ~Ref
XRD ([3]; six weeks open, 40° C./75% RH): ~Ref
IR ([3]; six weeks open, 50° C.): ~Ref
XRD ([3]; six weeks open, 50° C.): ~Ref
IR ([3]; six weeks open, RT/56% RH): ~Ref
XRD ([3]; six weeks open, RT/56% RH): ~Ref
IR ([3]; six weeks open, RT/75% RH): ~Ref
XRD ([3]; six weeks open, RT/75% RH): ~Ref
IR ([3]; six weeks open, RT/<5% RH): ~Ref
XRD ([3]; six weeks open, RT/<5% RH): ~Ref
crystallographic stability (conclusion) ([3]; six weeks open storage under the different conditions, hydrochloride): crystallographically stable
DSC Exotherm Max (° C.) ([3]; six weeks open, 40° C./75% RH): 216.9 °C
TGA <200° C. ([3]; six weeks open, 40° C./75% RH): 0.3%
App (appearance) [3, 6]: Beige-gray
TGA <100° C. [3, 6]: 1%
DSC Exotherm Max (° C.) ([3]; six weeks open, 50° C.): 216.9 °C
TGA <200° C. ([3]; six weeks open, 50° C.): 0.3%
App (appearance) [3, 7]: Beige-gray
TGA <100° C. [3, 7]: 0.5%
DSC Exotherm Max (° C.) ([3]; six weeks open, RT/56% RH): 216.9 °C
TGA <200° C. ([3]; six weeks open, RT/56% RH): 0.4%
App (appearance) [3, 8]: Beige-gray
TGA <100° C. [3, 8]: 0.5%
DSC Exotherm Max (° C.) ([3]; six weeks open, RT/75% RH): 217.0 °C
TGA <200° C. ([3]; six weeks open, RT/75% RH): 0.4%
App (appearance) [3, 9]: Beige-gray
TGA <100° C. [3, 9]: 0.9%
DSC Exotherm Max (° C.) ([3]; six weeks open, RT/<5% RH): 216.7 °C
TGA <200° C. ([3]; six weeks open, RT/<5% RH): 0.5%
App (appearance) [3, 10]: Beige-gray
TGA <100° C. [3, 10]: 0.8%
Appearance ([4]; 0.3 da ICH light (1 week)): beige-gray
HPLC Sum of impurities ([4]; 0.3 da ICH light (1 week)): 4.58%
Appearance ([4]; 40° C./75% RH, 1 week): beige-gray
HPLC Sum of impurities ([4]; 40° C./75% RH, 1 week): 3.31%
Appearance ([4]; 40° C./75% RH, 4 weeks): beige-gray
HPLC Sum of impurities ([4]; 40° C./75% RH, 4 weeks): 3.13%
Appearance ([4]; 40° C./75% RH, 8 weeks): beige-gray
HPLC Sum of impurities ([4]; 40° C./75% RH, 8 weeks): 3.59%
Appearance ([4]; 50° C., 1 week): beige-gray
HPLC Sum of impurities ([4]; 50° C., 1 week): 3.19%
Appearance ([4]; 50° C., 4 weeks): beige-gray
HPLC Sum of impurities ([4]; 50° C., 4 weeks): 3.2%
Appearance ([4]; 50° C., 8 weeks): beige-gray
HPLC Sum of impurities ([4]; 50° C., 8 weeks): 3.16%
Appearance ([4]; RT/56% RH, 4 weeks): beige-gray
HPLC Sum of impurities ([4]; RT/56% RH, 4 weeks): 3.27%
Appearance ([4]; RT/56% RH, 8 weeks): beige-gray
HPLC Sum of impurities ([4]; RT/56% RH, 8 weeks): 3.15%
Appearance ([4]; RT/75% RH, 4 weeks): beige-gray
HPLC Sum of impurities ([4]; RT/75% RH, 4 weeks): 3.43%
Appearance ([4]; RT/75% RH, 8 weeks): beige-gray
HPLC Sum of impurities ([4]; RT/75% RH, 8 weeks): 3.39%
Appearance ([4]; RT/<5% RH, 4 weeks): beige-gray
HPLC Sum of impurities ([4]; RT/<5% RH, 4 weeks): 3.42%
Appearance ([4]; RT/<5% RH, 8 weeks): beige-gray
HPLC Sum of impurities ([4]; RT/<5% RH, 8 weeks): 3.16%
Appearance ([4]; Reference (1 week)): beige-gray
HPLC Sum of impurities ([4]; Reference (1 week)): 3.14%
sensitivity towards light (sum of impurities) ([4]; storage in 0.3 da ICH light conditions): showed a sensitivity towards light
Compound: Cn1cc(CNCC2CCN(c3ncc(C(=O)NO)cn3)CC2)c2ccccc21 [Form I, N-hydroxy-2-[4-[[[(1-methyl-1H-indol-3-yl)methyl]amino]methyl]-1-piperidinyl]-5-pyrimidinecarboxamide hydrochloride]
